# According to patent publication US20060247156A1, “Use of neuropeptides for ligament, cartilage, and bone healing” (priority 2004, published 2006):
# Entries after “also recorded” stand apart in the source; their conditions may differ.
# What was measured:
# [1] = tested on: cartilage and subchondral bone defect in the trochlear groove; assay: Full-thickness cartilage defect healing with substance P delivery, histological grading; assay type: in vivo, rat
# From the text: Purpose-bred male Wistar rats, were used in this Example. Rats were acclimated to the animal care facility for seven days before use. All rats then undergo general anesthesia for surgical induction of cartilage injury. All rats underwent bilateral surgery. At the time of surgery, miniosmotic pumps were placed for NP treatment. All pumps remained in place throughout the experiment. At various time intervals after the surgery (2, 4 and 6 weeks), the rats were euthanized each joint was harvested for histological analysis.
# Cartilage Injury: A […] long incision was made over the patellar tendon and the tendon and surrounding tissue was exposed. A mini-arthrotomy was made and the patella was subluxed (dislocated) to expose the femoral condyles and trochlear groove. A drill was used to create a full thickness (3 mm deep) hole, 0.635 mm in diameter, in the trochlear groove. The patella was then repositioned and the muscle fascia and subcutaneous tissue was closed with a continuous suture pattern, and the skin apposed with skin staples.
# Neuropeptide delivery: Substance P (75 pg/100 μl) was infused subcutaneously (0.25 μl/hr) via the implantation of mini-osmotic pumps (Alza Corp. Palo Alto, Calif.). In all rats, neuropeptide infused pumps were implanted in a subcutaneous pocket after induction of general anesthesia. […]
# [2] = tested on: ruptured MCL of a FNT rat; assay: Local neuropeptide delivery to ruptured MCL of femoral nerve transected (FNT) rats: mechanical testing, histomorphology; assay type: in vivo; conditions: for failure force / ultimate stress / mechanical strength of healing MCL (in words): two weeks of healing; for mechanical strength of healing MCL (in words): local delivery of SP or CGRP
# From the text: Surgical Procedure: Thirteen female Wistar rats (278 g to 315 g) were divided into two groups: femoral nerve transection (FNT) or sham control. All rats were anesthetized with isofluorane (isofluorane 0.5-3%). […] Skin covering the anterior inguinal region was shaved and prepared for surgery. A skin incision approximately 15 mm long was made and the fascia distal to the inguinal was incised. The femoral artery, vein, and nerve were exposed and the femoral nerve was isolated and transected (with removal of a 5 mm segment of the nerve) using 3-0 dexon suture. The fascia and skin were closed in two layers with 3-0 continuous dexon suture. Immediately following FNT, rats from each group (n=4 FNT; n=3 controls) underwent a complete surgical rupture of the MCL to one knee. The contra-lateral knee underwent sham surgery. Two weeks post-knee surgery, rats were sacrificed using an overdose of pentobarbitone (150 mg/kg).
# Local delivery of NPs and NP inhibitors is important to identify the specific roles of individual NPs on healing tissues. […] Briefly, NP infused mini-osmotic pumps were implanted subcutaneously into the back of rats. A small catheter running from the pump to an intramuscular space above the MCL was secured to the rat.
# To test whether sensory NPs improve healing in femoral nerve transection (FNT) ruptured MCLs, three female Wistar rats (199 g to 203 g) were given SP locally to the MCL. Substance P (103 pg/μl) was infused into a miniosmotic pump and was delivered to a ruptured MCL of a FNT rat (see surgical procedure in Example 1 above). […] The results are presented graphically in FIG. 5
# Animal Model and Surgery: Thirty-seven female Wistar rats (199-298 g) were divided into five groups. […] Rats that were designated to receive NPY, VIP, or a combination of NPY and VIP underwent bilateral surgical sympathectomy. Following surgical nerve transection, each rat also underwent bilateral MCL rupture. Neuropeptides were then delivered ruptured MCLs unilaterally. Neuropeptide infused mini-osmotic pumps (Alzet Corp.) were implanted subcutaneously into the back of each rat. A small catheter running from the pump was run to an intramuscular space above the MCL and was secured. To ensure that neuropeptides are delivered directly to the MCL, rhodamine labeled SP was delivered via a catheter to the MCL (n=2 rats).
# To test whether autonomic NPs improve healing in SS ruptured MCLs, seven rats were given VIP, seven rats were given NPY, and seven rats were given a combination of VIP and NPY.
# Mechanical Testing: Mechanical testing was performed as described in the preceding examples. Briefly, animal hind limbs from all groups (n=4 for all groups) were disarticulated at the hip joint and stored at −80° C. until testing. On the day of testing, MCLs including intact femoral and tibial bone sections were excised for ex vivo testing. Ligament thickness and width was measured optically, and MCL area was estimated with elliptical geometry. For strain measurements, optical markers were placed onto the ligament tissue near the insertion sites. A small preload of 0.1N was applied to the ligaments in order to obtain a uniform starting point. The ligaments were then preconditioned to 1% strain for 10 cycles. After preconditioning, ligaments were pulled to failure at a rate of ˜10% per second. Tissue displacement was obtained using video dimensional analysis using equations (1) and (2) supra. The mechanical properties that were examined in this study were maximum force, ultimate stress, strain at failure, elastic modulus, and area.
# [3] = Example 3: SP 103 pg/μl via mini-osmotic pump to ruptured MCL of FNT rat
# [4] = Example 6: SP 75 pg/100 μl via mini-osmotic pump, FNT rats, bilateral MCL rupture
substance,measurement,setting,value
Substance P [SP],average cartilage repair score (0 no damage to 24),"[1]; Substance P 75 pg/100 μl, 0.25 μl/hr via mini-osmotic pump, initial two week period, Sellers grading",11.9
same,healing of cartilage and subchondral bone (in words),[1]; full-thickness cartilage defects after two weeks of healing,greatly improved healing of both the cartilage and subchondral bone
same,failure force,[2]; [3],74.3 N
same,ultimate stress,[2]; [3],72.33 MPa
same,failure force,[2]; [4],74.3±7.9 N
same,ultimate stress,[2]; [4],72.33±22.1 MPa
same,histomorphology (H&E) of healing MCL,"[2]; FNT rats, SP 75 pg/100 μl or CGRP 10 pg/100, two weeks",cells were more aligned
same,mechanical strength of healing MCL (in words),[2]; FNT rats,"greater than the strength of uninjured MCLs; also recorded: greater than that of normally innervated, intact MCLs"
same,mechanical strength of healing MCL (in words),"[2]; FNT rats, listed as Substance P",completely reversed the functional deficits
